Results on six compounds are retold here after patent publication US9598686B2, “Use of Galerina marginata genes and proteins for peptide production” (Board of Trustees of Michigan State University, priority 2007, dated 2017).

*1 amine or outer side, *2 acyl side, *3 side chain or, on linkers, in order; H or OH if unused. Where a SMILES comes first, the peptide text is derived from it. Bridges are numbered along the chain shown (N, C = ends). [ ]: non-standard residue; d: D form. Trp(2-SH) = 2-mercapto-L-tryptophan, O=C([C@H](Cc1c(S[*:3])[nH]c2ccccc12)N[*:1])[*:2]; Trp(2-yl) = O=C([C@H](Cc1c([*:3])[nH]c2ccccc12)N[*:1])[*:2]; Leu(4R-OH,5-OH) = C[C@](O)(CO)C[C@H](N)C(=O)O; Leu(4,5-diOH) = 4,5-dihydroxy-L-leucine; cisHyp = O=C(O)[C@@H]1C[C@H](O)CN1

For data set [1] the following is noted: oral; cited from earlier work.
The conditions of data set [2]: parenteral: inhalation, intravenous or intramuscular injection; cited from earlier work.
Data set [3] deals with POPB (prolyl oligopeptidase) purified from Conocybe albipes. The data set can be described thus: cleavage of synthetic model toxin propeptides by purified POP, reverse phase HPLC and MS. The class given is biochemical. The conditions noted are these: products confirmed by MS/MS.
Method: The responsible enzyme was purified. Specifically, Conocybe mushrooms were freeze-dried, ground in buffer, and the extracts concentrated by ammonium sulfate precipitation. After desalting, the proteins were fractionated by anion exchange high-performance liquid chromatography (or high pressure liquid chromatography, HPLC).
Fractions containing peptides were assayed using Z-Gly-Pro-pNA and the model phallacidin substrate. Reaction products were separated by reverse phase HPLC (FIG. 20). In some experiments the HPLC eluant was analyzed by MS, while in other cases the peaks of UV absorption were collected and analyzed by MS in the inventors lab and the central LC/MS facility, in particular for long HPLC run times. […] PepSeq within the MassLynx program was used to determine peptide sequences. The peptides eluting from HPLC were monitored at 280 nm.
Confirmation of reaction product structures was accomplished by MS/MS.
The test system of the next data set is human. The conditions noted are these: cited from earlier work.

For the compound `C[C@@H]1NC(=O)[C@H](C[C@@](C)(O)CO)NC(=O)[C@@H]2Cc3c([nH]c4ccccc34)SC[C@H](NC(=O)[C@@H]([C@H](C)O)NC1=O)C(=O)N1C[C@@H](O)C[C@H]1C(=O)N[C@@H](C)C(=O)N2` [phalloidin, cyclic (L-alanyl-D-threonyl-L-cysteinyl-cis-4-hydroxy-L-prolyl-L-alanyl-2-mercapto-L-tryptophyl-4,5-dihydroxy-L-leucyl), cyclic (3,6)-sulfide] (cyclo(A[dT]C[cisHyp]A[Trp(2-yl)][Leu(4R-OH,5-OH)]); thioether 3-6), the “absorption by the mammalian digestive tract” value in data set [1] is reported as “do not appear to be absorbed”. Besides, in data set [2], the “toxicity when administered parenterally” value is given as “poisonous”. “ATRLPAWLVDCPCVGDD [synthetic phallacidin precursor]”: the “cleavage by purified POP at flanking Pro residues” value (from here on “cleavage by purified POP”) in data set [3] is recorded as “cut”.

For “ATRLPIWGIGCNPCVGDD [synthetic amanitin precursor]”, the “cleavage by purified POP” value in data set [3] was “cut”.

In the case of “MSDINATRLPAWLATCPCAGDD [synthetic phalloidin peptide, synthesized model peptide mimicking the phalloidin proprotein]”, in data set [3], the “cleavage by purified POP” value was “cuts”. Take “cyclic (L-alanyl-2-mercapto-L-tryptophyl-4,5-dihydroxy-L-leucyl-L-valyl-er-ythro-3-hydroxy-D-alpha-aspartyl-cysteinyl-cis-4-hydroxy-L-prolyl)cyclic (2-6)-sulfide (cyclo(A[Trp(2-SH)][Leu(4,5-diOH)]VDC[cisHyp]); thioether 2-6; not fully specified (residue 5)) [phallacidin]”: the “absorption by the mammalian digestive tract” value in data set [1] is recorded as “do not appear to be absorbed”. In addition, the “toxicity when administered parenterally” value in data set [2] is recorded as “poisonous”.

Consider “cyclic (L-asparaginyl-4-hydroxy-L-prolyl-(R)-4,5-dihydroxy-L-isoleucyl-6-hydroxy-2-mercapto-L-tryptophylglycyl-L-isoleucylglycyl-L-cysteinyl), cyclic (4-8)-sulfide, (R)—S-oxide [α-amanitin]”, for which the fatal dose with human (fatal for at least 50% of people weighing approximately 100-110 kgs, amount one mature mushroom can contain) is 10 to 12 mg. The “human LD50” value with human (human) is given as “approximately 0.1 mg/kg”.
